Results published in patent US20120245346A1, “MALEIC ACID SALT AND CRYSTAL THEREOF” (Kyorin Pharmaceutical Co., Ltd., priority 2009, published 2012).
Where a name gives a salt, the structure may show the parent alone. Read-outs that look alike come from different tables or passages of the source.

Key:
Format in all cases: physicochemical
[1] = Stability as a drug substance, 2-week storage, HPLC assay of mainly degradation product (Test Example 1, Stage 1); conditions: 2-week storage at 25° C./75% RT (closed system), increase in HPLC area % of mainly degradation product
Protocol: (§1) As the monomaleic acid salt, the sample in Example 5 was used in Stage 1 of Table 2, and the sample in Example 1 was used in Stage 2. The other samples in respective Stages of Table 2 were prepared in accordance with Patent Literature 1. The solubility and the stability as a drug substance of the respective samples were examined in Stage 1, and the crystallinity, phenomenon of crystal polymorphism, and presence or absence of adhesion water were examined in Stage 2.
Stability as a drug substance: The sample after 2-week storage at 25° C./75% RT (closed system) was assayed by high-performance liquid chromatography (HPLC) under conditions described below. When the increase in area percentage (%) of a mainly degradation product is less than +0.5%, the stability of drug substances is represented as circle (◯), and when the increase is +0.5% or more, the stability of drug substances is represented as cross mark (x). In Test Example 2, the mainly degradation product was assayed by HPLC under the same conditions.
Conditions of HPLC in test of stability as a drug substance
column: Atlantis dC18, 2.1 mm φ×15 cm, 3 μm Measurement wavelength: 254 nm column temperature: 40° C. Flow rate: 0.2 mL/min Mobile phase A: 0.05% formic acid aqueous solution Mobile phase B: 0.05% formic acid-acetonitrile solution Transfer of mobile phases: The mixed ratio of mobile phase A and mobile phase B is changed as shown in Table 1 to control the concentration gradient.

[2] = Solubility in water (Test Example 1, Stage 1)
Protocol: as §1
Solubility: When the ratio of dissolved sample to water is 10 mg/mL or more, the solubility of the sample is represented as circle (◯), and when the ratio is 10 mg/mL or less, the solubility is represented as cross mark (x).

[3] = Adhesion water by thermal analysis TG-DTA (Test Example 1, Stage 2); conditions: for ADHESION WATER: decrease (%) in TG-DTA chart at about 50° C., Stage 2; for adhesion water (in words): TG-DTA decrease (%) at about 50° C.
Protocol: (§2) A sample (5 mg) was placed in a sample pan (a container made of aluminum), and thermal analysis TG-DTA of the sample was performed using EXSTAR 6000 thermal analyzer manufactured by Seiko Instruments Inc.
as §1
Adhesion water: When decrease (%) in the chart obtained from the thermal analysis TG-DTA is seen at about 50° C., the adhesion water is represented as “Presence,” and when the decrease (%) is not seen, the adhesion water is represented as “None.”

[4] = Development of crystal polymorphism by TG-DTA and powder x-ray diffraction (Test Example 1, Stage 2); conditions: TG-DTA versus powder x-ray diffraction
Protocol: as §2
(§3) A sample (about 100 mg) was (lightly) pulverized in an agate mortar, and a packed section of a sample flat holder made of glass was filled with the pulverized sample. Powder x-ray diffraction of the sample was then performed using RINT2200 powder x-ray diffractometer (Rigaku Corporation).
as §1
Development of crystal polymorphism: For crystals of the same salt, when the crystal structure shown by the thermal analysis TG-DTA is different from that shown by the powder x-ray diffraction, the development of crystal polymorphism is represented as “Presence”. On the other hand, when the thermal analysis TG-DTA and the powder x-ray diffraction show the same crystal structure, the development of crystal polymorphism is represented as “None.”

[5] = Crystallinity by powder x-ray diffraction (Test Example 1, Stage 2); conditions: for crystallinity (in words): powder x-ray diffraction; for CRYSTALLINITY: powder x-ray diffraction peak intensity, Stage 2
Protocol: as §3, §1
Crystallinity: In powder x-ray diffraction, when a peak intensity is 5000 cps or more, the crystallinity is represented as “High,” and when it is 5000 cps or less, the crystallinity is represented as “Low.”

[6] = ratio of dissolved sample to water, Stage 1

Row | SMILES | STABILITY AS DRUG SUBSTANCE [1] | SOLUBILITY [2, 6] | ADHESION WATER [3] | adhesion water (in words) [3] | crystallinity (in words) [5] | PHENOMENON OF CRYSTAL POLYMORPHISM [4] | CRYSTALLINITY [5] | other results
1 | CCc1cc(OC)cc2nc(-c3cccnc3N3CC[C@H](N(C)C)C3)oc(=O)c12 [½D-TARTARIC ACID, 2-[2-((S)-3-dimethylaminopyrrolidin-1-yl)pyridin-3-yl]-5-ethyl-7-methoxy-4H-benz[d][1,3]oxazin-4-one] | x (when the increase is +0.5% or more) | ∘ | PRESENCE |  |  |  |  | solubility in water ([2]; water, listed as 1/2D-tartaric acid salt): ≥ 10000 µg/mL
2 | CCc1cc(OC)cc2nc(-c3cccnc3N3CC[C@H](N(C)C)C3)oc(=O)c12 [MONOMALEIC ACID, 2-[2-((S)-3-dimethylaminopyrrolidin-1-yl)pyridin-3-yl]-5-ethyl-7-methoxy-4H-benz[d][1,3]oxazin-4-one monomaleate] |  |  |  | adhesion water was not present | high crystallinity |  |  | PHENOMENON OF CRYSTAL POLYMORPHISM ([4]; monomaleate): PRESENCE; STABILITY AS DRUG SUBSTANCE ([1]; monomaleate): ∘; SOLUBILITY ([2]; ratio of dissolved sample to water, Stage 1, monomaleate): ∘; solubility in water ([2]; water, listed as monomaleic acid salt, monomaleate): ≥ 10000 µg/mL; ADHESION WATER ([3]; monomaleate): NONE; CRYSTALLINITY ([5]; monomaleate): HIGH
3 | CCc1cc(OC)cc2nc(-c3cccnc3N3CC[C@H](N(C)C)C3)oc(=O)c12 [¾L-TARTARIC ACID, 2-[2-((S)-3-dimethylaminopyrrolidin-1-yl)pyridin-3-yl]-5-ethyl-7-methoxy-4H-benz[d][1,3]oxazin-4-one] | ∘ |  | PRESENCE |  |  |  |  | SOLUBILITY ([2]; water, ratio of dissolved sample to water, Stage 1, read-out: SOLUBILITY): ≤ 10000 µg/mL
4 | CCc1cc(OC)cc2nc(-c3cccnc3N3CC[C@H](N(C)C)C3)oc(=O)c12.Cl.O [MONOHYDROCHLORIDE, 2-[2-((S)-3-dimethylaminopyrrolidin-1-yl)pyridin-3-yl]-5-ethyl-7-methoxy-4H-benz[d][1,3]oxazin-4-one hydrochloride monohydrate] | ∘ | ∘ | PRESENCE | adhesion water was present | low crystallinity and high amorphous content | PRESENCE | LOW | SOLUBILITY ([2]; water, read-out: solubility in water): ≥ 10000 µg/mL
5 | CCc1cc(OC)cc2nc(-c3cccnc3N3CC[C@H](N(C)C)C3)oc(=O)c12 [DIHYDROCHLORIDE, 2-[2-((S)-3-dimethylaminopyrrolidin-1-yl)pyridin-3-yl]-5-ethyl-7-methoxy-4H-benz[d][1,3]oxazin-4-one] | x (when the increase is +0.5% or more) | ∘ | PRESENCE |  |  |  |  | solubility in water ([2]; water): ≥ 10000 µg/mL
6 | CCc1cc(OC)cc2nc(-c3cccnc3N3CC[C@H](N(C)C)C3)oc(=O)c12 [FREE FORM, 2-[2-((S)-3-dimethylaminopyrrolidin-1-yl)pyridin-3-yl]-5-ethyl-7-methoxy-4H-benz[d][1,3]oxazin-4-one] | ∘ | x (when the ratio is 10 mg/mL or less) |  |  |  | AMORPHOUS | LOW | solubility in water ([2]; water, listed as free base): ≤ 2000 µg/mL
